Test results published in US20060217340A1, “Methods and products for treating hypertension by modulation of TRPC3 channel activity” (University of Vermont and State Agricultural College, priority 2005, published 2006).
“Also recorded” adds a separate entry of the source.

What was measured:
[1] = system: pressurized rat cerebral arteries; experiment: Arterial diameter recordings (constriction) in pressurized cerebral arteries; type: cell-based; details: for change in lumen diameter: Ca2+ returned to superfusate in the presence of UTP and nimodipine; for decrease of resting diameter: extracellular KCl raised from 5 mM to 60 mM; for myogenic tone: intravascular pressure increased from 20 to 80 mm Hg
From the text: (§1) Oligodeoxynucleotide Sequences and Reverse Permeabilization. TRPC6 sense and antisense oligodeoxynucleotides (ODN's) were designed as previously described (Welsh et al 2002 Circ Res 90, 248-250) and were as follows: sense, 5′-[…]-3′ (SEQ ID: 3) and 5′-GCACACGCAGCCTCTTCAC-3′ (SEQ ID: 4) antisense, 5′-[…]-3′ (SEQ ID: 5) and 5′-[…]-3′ (SEQ ID: 6). TRPC3 sense and antisense ODN's were designed based on the rat TRPC3 gene (Ohki et al 2000 J Biol Chem 275: 39055-39060) and are as follows: sense, 5′-[…]-3′ (SEQ ID: 7) and 5′-[…]-3′ (SEQ ID: 8); anti-sense, 5′-[…]-3′ (SEQ ID: 9) and 5′-[…]-3′ (SEQ ID: 10). The last five bases on the 5′ and 3′ end were phosphorothioated in order to limit ODN degradation. For some experiments fluoroscein-isothiocyanate was conjugated to the 5′ end to allow for histological assessment of cellular uptake of the ODNs. All ODNs were synthesized and HPLC purified commercially by Qiagen (Alameda, Calif., USA). Sense and antisense ODN's (2 μM) were introduced into the arterial SMs using a reversible permeabilization procedure (Lesh et al 1995 Circ Res 77,220-230)). The arterial segments were then organ cultured for 3 days in D-MEM/F-12 culture media with L-glutamine (2 mM), penicillin (50 units/ml) and streptomycin (50 μg/ml) prior to use.
Diameter and membrane potential recordings. Endothelial cell denuded artery segments were mounted on glass pipettes in an arteriograph chamber (Living Systems, Burlington, Vt., USA), pressurized to 20 mmHg (with no flow), and superfused with warm (37° C.), gassed (95% 02/5% CO2) physiological saline solution (PSS) containing (in mM): 119 NaCl, 4.7 KCl, 24 NaHCO3, 0.2 KH2PO4, […], 1.2 MgSO4, 1.6 CaCl2, and 10.6 glucose, pH 7.4. In experiments using Ca^2+-free PSS, CaCl2 was omitted and 3 mM EGTA and 30 μM diltiazem added. In experiments with diacylglycerol induction, 300 μM of the diacylglycerol analogue OAG (1-oleyol-2-acetyl-sn-glycerol) was added. The endothelium was removed as previously described (Sun et al 1993 Endothelium 1, 115-122). To verify endothelial cell removal the arteries were pressurized to 60 mmHg and allowed to develop myogenic tone prior to exposing the vessels to 1 μM UTP. Absence of a dilation or biphasic constrictor response to 1 μM UTP indicated successful endothelial cell removal (Marelli 2001 Am J Physiol Heart Cir Physiol 281, H1759-H1766; Miyagi et al 1996 Br J Pharmacol 118, 847-856). […] Membrane potential was measured by inserting a sharp glass electrode (≈100 MΩ resistance) containing 0.5M KCl into the vessel wall. The criteria for successful vascular smooth muscle cell impalement were: (1) a sharp negative Vm deflection on entry; (2) a stable potential for at least 1 minute after entry; and (3) a sharp positive Vm deflection upon removal. Measurements were made using an electrometer (World Precision Instruments) and the data were recorded via computer using Axotape and Dataq software. Arterial diameter was measured using a video dimension analyzer (IonOptix Corporation; Milton, Mass.).
Statistical analysis. Data are expressed as means±SEM, and n indicates the number of animals. Changes in arterial diameter were measured as a percent constriction calculated as follows: [formula]

cerebral artery SMCs = experiment: Membrane potential recordings in pressurized cerebral arteries; type: cell-based, rat; details: for resting membrane potential (Vm): before UTP; for pressure-induced depolarization of arterial SMCs: intravascular pressure increased from 20 to 80 mm Hg
From the text: as §1
Diameter and membrane potential recordings. Endothelial cell denuded artery segments were mounted on glass pipettes in an arteriograph chamber (Living Systems, Burlington, Vt., USA), pressurized to 20 mmHg (with no flow), and superfused with warm (37° C.), gassed (95% 02/5% CO2) physiological saline solution (PSS) containing (in mM): 119 NaCl, 4.7 KCl, 24 NaHCO3, 0.2 KH2PO4, […], 1.2 MgSO4, 1.6 CaCl2, and 10.6 glucose, pH 7.4. In experiments using Ca^2+-free PSS, CaCl2 was omitted and 3 mM EGTA and 30 μM diltiazem added. In experiments with diacylglycerol induction, 300 μM of the diacylglycerol analogue OAG (1-oleyol-2-acetyl-sn-glycerol) was added. The endothelium was removed as previously described (Sun et al 1993 Endothelium 1, 115-122). To verify endothelial cell removal the arteries were pressurized to 60 mmHg and allowed to develop myogenic tone prior to exposing the vessels to 1 μM UTP. Absence of a dilation or biphasic constrictor response to 1 μM UTP indicated successful endothelial cell removal (Marelli 2001 Am J Physiol Heart Cir Physiol 281, H1759-H1766; Miyagi et al 1996 Br J Pharmacol 118, 847-856). Arterial diameter or membrane potential (Vm) of sense and anti-sense treated arteries was measured in the absence (control) or presence of UTP (concentration range: 0.1 to 10 μM). Membrane potential was measured by inserting a sharp glass electrode (≈100 MΩ resistance) containing 0.5M KCl into the vessel wall. The criteria for successful vascular smooth muscle cell impalement were: (1) a sharp negative Vm deflection on entry; (2) a stable potential for at least 1 minute after entry; and (3) a sharp positive Vm deflection upon removal. Measurements were made using an electrometer (World Precision Instruments) and the data were recorded via computer using Axotape and Dataq software. Arterial diameter was measured using a video dimension analyzer (IonOptix Corporation; Milton, Mass.).

[2] = 1 μM UTP, paired arteries, original recordings (FIG. 7A)

Substance: 5′-GAGAACCATGAACTGGAATA-3′ (SEQ ID: 9) and 5′-ACGACCAACACGACCAGACA-3′ (SEQ ID: 10) (phosphorothioate ends, further chemistry not given here) [TRPC3 antisense, antisense ODNs based on the rat TRPC3 gene; last five bases on the 5′ and 3′ end phosphorothioated]
- generalized inhibitory effect on arterial contractility [1]: no generalized inhibitory effect
- constriction [1, 2]: 30%
- constriction ([1]; 300 μM OAG): 1±1%
- reduction of UTP-induced constriction compared with sense-treated arteries ([1]; 10^−5 M UTP): 37%
- reduction of UTP-induced constriction compared with sense-treated arteries ([1]; 10^−6 M UTP): approximately 61%
- change in lumen diameter [1]: −85±17 μm
- decrease of resting diameter [1]: 57±9%
- myogenic tone [1]: 27±5%
- constrictions versus sense treated arteries ([1]; low concentration of UTP (0.1 to 1.0 μM)): significantly less
- UTP-induced depolarization of SMCs versus sense-treated arteries (cerebral artery SMCs; all UTP concentrations tested): significantly less; also recorded: significantly reduced
- resting membrane potential (Vm) (cerebral artery SMCs): −49±2 mV
- pressure-induced depolarization of arterial SMCs (cerebral artery SMCs): 14±1 mV

Substance: 5′-TATTCCAGTTCATGGTTCTC-3′ (SEQ ID: 7) and 5′-TGTCTGGTCGTGTTGGTCGT-3′ (SEQ ID: 8) (phosphorothioate ends, further chemistry not given here) [TRPC3 sense, sense control ODNs based on the rat TRPC3 gene; end bases phosphorothioated]
- constriction [1, 2]: 38%
- constriction ([1]; 300 μM OAG): 17±3%
- change in lumen diameter [1]: −128±8 μm
- decrease of resting diameter [1]: 58±12%
- myogenic tone [1]: 26±4%
- resting membrane potential (Vm) (cerebral artery SMCs): −50±1 mV
- pressure-induced depolarization of arterial SMCs (cerebral artery SMCs): 14±1 mV
